The values below come from patent US20240043404A1 (AbbVie Inc., priority 2009, published 2024).

One experiment has as its system RS4;11 cells. Nature of the experiment: RS4;11 cell viability assay (CellTiter Glo).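 Also: acute lymphoblastic leukemia line RS4,11, EC50 derived from percentage of viable cells after treatment relative to untreated controls, cell killing taken as a measure of Bcl-2 inhibition.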 To be noted: Homo sapiens, RS4-11, 48 h, 50,000 cells per well, 10% human serum, 48 hours; read-out: RS4; 11 EC50 Values. It is filed as cell-based, human. A general note: Cellular ATP, detected with luciferase, serves as a proxy for viable cell number.
Method: The acute lymphoblastic leukemia (ALL) cell line RS4;11 was used as the primary human cell line to assess the cellular activity of Bcl-2 selective agents in vitro and their efficacy in vivo.
Cell cytotoxicity EC50 values were assessed using CellTiter Glo (Promega) according to the manufacturer's recommendations. The EC50 values were determined as a percentage of viable cells following treatment compared to the untreated control cells.
For the compound `CC1(C)CCC(CN2CCN(c3ccc(C(=O)NS(=O)(=O)c4ccc(NCC5CCOCC5)c([N+](=O)[O-])c4)c(Oc4ccc5[nH]ccc5c4)c3)CC2)=C(c2ccc(Cl)cc2)C1` [Example 18, 4-(4-{[2-(4-chlorophenyl)-4,4-dimethylcyclohex-1-en-1-yl]methyl}piperazin-1-yl)-2-(1H-indol-5-yloxy)-N-({3-nitro-4-[(tetrahydro-2H-pyran-4-ylmethyl)amino]phenyl}sulfonyl)benzamide], the EC50 was 86 nM.

Consider `CC1(C)CCC(CN2CCN(c3ccc(C(=O)NS(=O)(=O)c4cnc(OCC5(F)CCOCC5)c(C#N)c4)c(Oc4cnc5[nH]ccc5c4)c3)CC2)=C(c2ccc(Cl)cc2)C1` [Example 56, 4-(4-{[2-(4-chlorophenyl)-4,4-dimethylcyclohex-1-en-1-yl]methyl}piperazin-1-yl)-N-({5-cyano-6-[(4-fluorotetrahydro-2H-pyran-4-yl)methoxy]pyridin-3-yl}sulfonyl)-2-(1H-pyrrolo[2,3-b]pyridin-5-yloxy)benzamide], for which the EC50 was 86.5 nM.

In the case of `CCN(C)C(=O)N1CCOC(CNc2ncc(S(=O)(=O)NC(=O)c3ccc(N4CCN(CC5=C(c6ccc(Cl)cc6)CC(C)(C)CC5)CC4)cc3Oc3cnc4[nH]ccc4c3)cc2Cl)C1` (stereo not shown) [Example 336, 2-{[(3-chloro-5-{[4-(4-{[2-(4-chlorophenyl)-4,4-dimethylcyclohex-1-en-1-yl]methyl}piperazin-1-yl)-2-(1H-pyrrolo[2,3-b]pyridin-5-yloxy)benzoyl]sulfamoyl}pyridin-2-yl)amino]methyl}-N-ethyl-N-methylmorpholine-4-carboxamide], the EC50 was determined as 351 nM.

`COCC1(C)CCC(c2ccc(Cl)cc2)=C(CN2CCN(c3ccc(C(=O)NS(=O)(=O)c4ccc(NCC5CCOCC5)c([N+](=O)[O-])c4)c(Oc4cnc5[nH]ccc5c4)c3)CC2)C1` (stereo not shown) [Example 360, 4-(4-{[2-(4-chlorophenyl)-5-(methoxymethyl)-5-methylcyclohex-1-en-1-yl]methyl}piperazin-1-yl)-N-({3-nitro-4-[(tetrahydro-2H-pyran-4-ylmethyl)amino]phenyl}sulfonyl)-2-(1H-pyrrolo[2,3-b]pyridin-5-yloxy)benzamide]: the EC50 stood at 9.9 nM.

With `CN(C)CC(=O)N1CC[C@@H](Nc2ccc(S(=O)(=O)NC(=O)c3ccc(N4CCN(CC5=C(c6ccc(Cl)cc6)CC(C)(C)CC5)CC4)cc3Oc3cnc4[nH]ccc4c3)cc2[N+](=O)[O-])C1` [Example 255, 4-(4-{[2-(4-chlorophenyl)-4,4-dimethylcyclohex-1-en-1-yl]methyl}piperazin-1-yl)-N-[(4-{[(3R)-1-(N,N-dimethylglycyl)pyrrolidin-3-yl]amino}-3-nitrophenyl)sulfonyl]-2-(1H-pyrrolo[2,3-b]pyridin-5-yloxy)benzamide], the EC50 worked out at 9 nM.

For the compound `CC1(C)CCC(c2ccc(Cl)cc2)=C(CN2CCN(c3ccc(C(=O)NS(=O)(=O)c4cnc(OCC5CCOCC5)c(C#N)c4)c(Oc4cnc5[nH]ccc5c4)c3)CC2)C1` [Example 76, 4-(4-{[2-(4-chlorophenyl)-5,5-dimethylcyclohex-1-en-1-yl]methyl}piperazin-1-yl)-N-{[5-cyano-6-(tetrahydro-2H-pyran-4-ylmethoxy)pyridin-3-yl]sulfonyl}-2-(1H-pyrrolo[2,3-b]pyridin-5-yloxy)benzamide], the EC50 was found to be 511 nM.

For `O=C(NS(=O)(=O)c1cnc(OCC2(F)CCOCC2)c(Cl)c1)c1ccc(N2CCC(F)(Cc3ccccc3-c3ccc(Cl)cc3)CC2)cc1Oc1cnc2[nH]ccc2c1` [Example 272, 4-{4-[(4′-chlorobiphenyl-2-yl)methyl]-4-fluoropiperidin-1-yl}-N-({5-chloro-6-[(4-fluorotetrahydro-2H-pyran-4-yl)methoxy]pyridin-3-yl}sulfonyl)-2-(1H-pyrrolo[2,3-b]pyridin-5-yloxy)benzamide], the EC50 was found to be 840 nM.

For the compound `CC1(C)CCC(CN2CCN(c3ccc(C(=O)NS(=O)(=O)c4ccc(OCC5(F)CCN(C6COC6)CC5)c([N+](=O)[O-])c4)c(Oc4cnc5[nH]ccc5c4)c3)CC2)=C(c2ccc(Cl)cc2)C1` [Example 167, 4-(4-{[2-(4-chlorophenyl)-4,4-dimethylcyclohex-1-en-1-yl]methyl}piperazin-1-yl)-N-({4-[(4-fluoro-1-oxetan-3-ylpiperidin-4-yl)methoxy]-3-nitrophenyl}sulfonyl)-2-(1H-pyrrolo[2,3-b]pyridin-5-yloxy)benzamide], the EC50 is 0.93 nM.

Turning to `CC1(C)CCC(CN2CCN(c3ccc(C(=O)NS(=O)(=O)c4ccc(N[C@H]5CC[C@H](N6CCN(C7CCOCC7)CC6)CC5)c([N+](=O)[O-])c4)c(Oc4cnc5[nH]ccc5c4)c3)CC2)=C(c2ccc(Cl)cc2)C1` [Example 128, Trans-4-(4-{[2-(4-chlorophenyl)-4,4-dimethylcyclohex-1-en-1-yl]methyl}piperazin-1-yl)-N-[(3-nitro-4-{[4-(4-tetrahydro-2H-pyran-4-ylpiperazin-1-yl)cyclohexyl]amino}phenyl)sulfonyl]-2-(1H-pyrrolo[2,3-b]pyridin-5-yloxy)benzamide], the EC50 turned out to be 5.89 nM.

For the compound `CC1(C)CCC(CN2CCN(c3ccc(C(=O)NS(=O)(=O)c4ccc(NC[C@H]5CN(C6CC6)CCO5)c([N+](=O)[O-])c4)c(Oc4cnc5[nH]ccc5c4)c3)CC2)=C(c2ccc(Cl)cc2)C1` [Example 327, 4-(4-{[2-(4-chlorophenyl)-4,4-dimethylcyclohex-1-en-1-yl]methyl}piperazin-1-yl)-N-{[4-({[(2S)-4-cyclopropylmorpholin-2-yl]methyl}amino)-3-nitrophenyl]sulfonyl}-2-(1H-pyrrolo[2,3-b]pyridin-5-yloxy)benzamide], the EC50 was 2.72 nM.

Regarding `CC1(C)CCC(CN2CCN(c3ccc(C(=O)NS(=O)(=O)c4ccc(OCC5(F)CCN(C6COC6)CC5)c(C#N)c4)c(Oc4cnc5[nH]ccc5c4)c3)CC2)=C(c2ccc(Cl)cc2)C1` [Example 357, 4-(4-{[2-(4-chlorophenyl)-4,4-dimethylcyclohex-1-en-1-yl]methyl}piperazin-1-yl)-N-[(3-cyano-4-{[4-fluoro-1-(oxetan-3-yl)piperidin-4-yl]methoxy}phenyl)sulfonyl]-2-(1H-pyrrolo[2,3-b]pyridin-5-yloxy)benzamide], the EC50 is 13.2 nM.

In the case of `CC1(C)CCC(CN2CCN(c3ccc(C(=O)NS(=O)(=O)c4ccc(NCC5CN(C6CC6)CCO5)c([N+](=O)[O-])c4)c(Oc4cnc5[nH]ccc5c4)c3)CC2)=C(c2ccc(Cl)cc2)C1` (stereo not shown) [Example 218, 4-(4-{[2-(4-chlorophenyl)-4,4-dimethylcyclohex-1-en-1-yl]methyl}piperazin-1-yl)-N-[(4-{[(4-cyclopropylmorpholin-2-yl)methyl]amino}-3-nitrophenyl)sulfonyl]-2-(1H-pyrrolo[2,3-b]pyridin-5-yloxy)benzamide], the EC50 came to 7.29 nM.

With `CC1(C)CCC(CN2CCN(c3ccc(C(=O)NS(=O)(=O)c4ccc(NC[C@@H]5CCN(C6COC6)C5)c([N+](=O)[O-])c4)c(Oc4cnc5[nH]ccc5c4)c3)CC2)=C(c2ccc(Cl)cc2)C1` [Example 209, 4-(4-{[2-(4-chlorophenyl)-4,4-dimethylcyclohex-1-en-1-yl]methyl}piperazin-1-yl)-N-{[3-nitro-4-({[(3S)-1-oxetan-3-ylpyrrolidin-3-yl]methyl}amino)phenyl]sulfonyl}-2-(1H-pyrrolo[2,3-b]pyridin-5-yloxy)benzamide], the EC50 is 4.5 nM.

For `CC1(C)CCC(CN2CCN(c3ccc(C(=O)NS(=O)(=O)c4cnc(NCC5CCOCC5)c(C#N)c4)c(Oc4cnc5[nH]ccc5c4)c3)CC2)=C(c2ccc(Cl)cc2)C1` [Example 106, 4-(4-{[2-(4-chlorophenyl)-4,4-dimethylcyclohex-1-en-1-yl]methyl}piperazin-1-yl)-N-({5-cyano-6-[(tetrahydro-2H-pyran-4-ylmethyl)amino]pyridin-3-yl}sulfonyl)-2-(1H-pyrrolo[2,3-b]pyridin-5-yloxy)benzamide], the EC50 amounted to 826 nM.

Turning to `CC1(C)CCC(CN2CCN(c3ccc(C(=O)NS(=O)(=O)c4ccc(NCC5CCN(C(CF)CF)CC5)c([N+](=O)[O-])c4)c(Oc4cnc5[nH]ccc5c4)c3)CC2)=C(c2ccc(Cl)cc2)C1` [Example 172, 4-(4-{[2-(4-chlorophenyl)-4,4-dimethylcyclohex-1-en-1-yl]methyl}piperazin-1-yl)-N-({4-[({1-[2-fluoro-1-(fluoromethyl)ethyl]piperidin-4-yl}methyl)amino]-3-nitrophenyl}sulfonyl)-2-(1H-pyrrolo[2,3-b]pyridin-5-yloxy)benzamide], the EC50 is 20.5 nM.

As for `CC1(C)CCC(CN2CCN(c3ccc(C(=O)NS(=O)(=O)c4cc(F)c(OCC5(F)CCOCC5)c(F)c4)c(Oc4cnc5[nH]ccc5c4)c3)CC2)=C(c2ccc(Cl)cc2)C1` [Example 310, 4-(4-{[2-(4-chlorophenyl)-4,4-dimethylcyclohex-1-en-1-yl]methyl}piperazin-1-yl)-N-({3,5-difluoro-4-[(4-fluorotetrahydro-2H-pyran-4-yl)methoxy]phenyl}sulfonyl)-2-(1H-pyrrolo[2,3-b]pyridin-5-yloxy)benzamide], the EC50 is over 1000 nM.

With `CC1(C)CCC(CN2CCN(c3ccc(C(=O)NS(=O)(=O)c4ccc(OCC5(F)CCN(C6CC6)CC5)c([N+](=O)[O-])c4)c(Oc4cnc5[nH]ccc5c4)c3)CC2)=C(c2ccc(Cl)cc2)C1` [Example 173, 4-(4-{[2-(4-chlorophenyl)-4,4-dimethylcyclohex-1-en-1-yl]methyl}piperazin-1-yl)-N-({4-[(1-cyclopropyl-4-fluoropiperidin-4-yl)methoxy]-3-nitrophenyl}sulfonyl)-2-(1H-pyrrolo[2,3-b]pyridin-5-yloxy)benzamide], the EC50 stood at 5.16 nM.

For the compound `CC1(C)CCC(CN2CCN(c3ccc(C(=O)NS(=O)(=O)c4ccc(NC5CCN(C6CCOC6)CC5)c([N+](=O)[O-])c4)c(Oc4cnc5[nH]ccc5c4)c3)CC2)=C(c2ccc(Cl)cc2)C1` (stereo not shown) [Example 143, 4-(4-{[2-(4-chlorophenyl)-4,4-dimethylcyclohex-1-en-1-yl]methyl}piperazin-1-yl)-N-({3-nitro-4-[(1-tetrahydrofuran-3-ylpiperidin-4-yl)amino]phenyl}sulfonyl)-2-(1H-pyrrolo[2,3-b]pyridin-5-yloxy)benzamide], the EC50 stood at 19.1 nM.

The same experiment, now with this note: Homo sapiens, RS4-11, Table 5, direct comparison Z=N with corresponding analogs Z=C; read-out: RS4; 11 EC50.
As to `CC1(C)CCC(CN2CCN(c3ccc(C(=O)NS(=O)(=O)c4ccc(NCC5CCOCC5)c([N+](=O)[O-])c4)c(Oc4ccc5[nH]ccc5c4)c3)CC2)=C(c2ccc(Cl)cc2)C1` [Example 18, 4-(4-{[2-(4-chlorophenyl)-4,4-dimethylcyclohex-1-en-1-yl]methyl}piperazin-1-yl)-2-(1H-indol-5-yloxy)-N-({3-nitro-4-[(tetrahydro-2H-pyran-4-ylmethyl)amino]phenyl}sulfonyl)benzamide], the EC50 came out at 86 nM.
